Among the data in paper PMC6084004 (2017) are melting point values, retold here.

One may read the melting point as the temperature of the solid-liquid transition. The molecule `Nc1ncnc2c1c1cc(Cl)ccc1n2[C@@H]1O[C@H](CO)[C@@H](O)[C@@H]1O` had a melting point of 298 to 301 °C.

On to `COc1ncnc2c1c1cc(Cl)ccc1n2[C@@H]1O[C@H](CO)[C@@H](O)[C@@H]1O`, for which the melting point is 238 to 241 °C.

Molecule `CSc1ncnc2c1c1cc(Cl)ccc1n2[C@@H]1O[C@H](CO)[C@@H](O)[C@@H]1O` came in with a melting point of 181 to 183 °C.

In turn, `Cc1ncnc2c1c1cc(Cl)ccc1n2[C@@H]1O[C@H](CO)[C@@H](O)[C@@H]1O` gave a melting point of 233 to 235 °C.

As for `OC[C@H]1O[C@@H](n2c3ccc(Cl)cc3c3c(-c4ccco4)ncnc32)[C@@H](O)[C@@H]1O`, the melting point lay in the range of 241 to 243 °C.

The molecule `OC[C@H]1O[C@@H](n2c3ccc(Cl)cc3c3c(-c4ccoc4)ncnc32)[C@@H](O)[C@@H]1O` yielded a melting point of 186 to 188 °C.

Molecule `OC[C@H]1O[C@@H](n2c3ccc(Cl)cc3c3c(-c4cccs4)ncnc32)[C@@H](O)[C@@H]1O` yielded a melting point of 192 to 194 °C.

On to `OC[C@H]1O[C@@H](n2c3ccc(Cl)cc3c3c(-c4ccsc4)ncnc32)[C@@H](O)[C@@H]1O`, for which the melting point is 207 to 209 °C.

`OC[C@H]1O[C@@H](n2c3ccc(Cl)cc3c3c(-c4ccccc4)ncnc32)[C@@H](O)[C@@H]1O`: the melting point is 183 to 185 °C.

For the molecule `Nc1ncnc2c1c1cc(Cl)ccc1n2[C@@H]1O[C@H](CO)[C@@H](O)[C@H]1F`, the melting point fell in the range of 275 to 278 °C.

Molecule `CSc1ncnc2c1c1cc(Cl)ccc1n2[C@@H]1O[C@H](CO)[C@@H](O)[C@H]1F` returned a melting point of 205 to 209 °C.

On to `Cc1ncnc2c1c1cc(Cl)ccc1n2[C@@H]1O[C@H](CO)[C@@H](O)[C@H]1F`, for which the melting point was in the range of 247 to 251 °C.

The molecule `OC[C@H]1O[C@@H](n2c3ccc(Cl)cc3c3c(-c4ccco4)ncnc32)[C@H](F)[C@@H]1O` yielded a melting point of 203 to 206 °C.

`OC[C@H]1O[C@@H](n2c3ccc(Cl)cc3c3c(-c4ccoc4)ncnc32)[C@H](F)[C@@H]1O` came in with a melting point of 184 to 186 °C.

With `OC[C@H]1O[C@@H](n2c3ccc(Cl)cc3c3c(-c4cccs4)ncnc32)[C@H](F)[C@@H]1O`, the melting point lay in the range of 206 to 211 °C.

In the case of `OC[C@H]1O[C@@H](n2c3ccc(Cl)cc3c3c(-c4ccsc4)ncnc32)[C@H](F)[C@@H]1O`, the melting point was in the range of 221 to 222 °C.

On to `OC[C@H]1O[C@@H](n2c3ccc(Cl)cc3c3c(-c4ccccc4)ncnc32)[C@H](F)[C@@H]1O`, for which the melting point was in the range of 192 to 193 °C.

`Nc1ncnc2c1c1cc(Cl)ccc1n2[C@@H]1O[C@H](CO)[C@@H](O)[C@@H]1F` gave a melting point of 267 to 272 °C.

Regarding `COc1ncnc2c1c1cc(Cl)ccc1n2[C@@H]1O[C@H](CO)[C@@H](O)[C@@H]1F`, the melting point is 248 to 250 °C.

On to `CSc1ncnc2c1c1cc(Cl)ccc1n2[C@@H]1O[C@H](CO)[C@@H](O)[C@@H]1F`, for which the melting point is 230 to 231 °C.

The molecule `Cc1ncnc2c1c1cc(Cl)ccc1n2[C@@H]1O[C@H](CO)[C@@H](O)[C@@H]1F` gave a melting point of 211 to 216 °C.

`OC[C@H]1O[C@@H](n2c3ccc(Cl)cc3c3c(-c4ccco4)ncnc32)[C@@H](F)[C@@H]1O` had a melting point of 75 to 81 °C.

For the molecule `OC[C@H]1O[C@@H](n2c3ccc(Cl)cc3c3c(-c4ccoc4)ncnc32)[C@@H](F)[C@@H]1O`, the melting point is 208 to 214 °C.

Molecule `OC[C@H]1O[C@@H](n2c3ccc(Cl)cc3c3c(-c4cccs4)ncnc32)[C@@H](F)[C@@H]1O` showed a melting point of 225 to 227 °C.

Take `OC[C@H]1O[C@@H](n2c3ccc(Cl)cc3c3c(-c4ccsc4)ncnc32)[C@@H](F)[C@@H]1O`: the melting point was 240 to 241 °C.

With `OC[C@H]1O[C@@H](n2c3ccc(Cl)cc3c3c(-c4ccccc4)ncnc32)[C@@H](F)[C@@H]1O`, the melting point is 214 to 216 °C.
